In patent US7138361B2, “Herbicidal heterocycles” (E. I. du Pont de Nemours and Company, priority 2000, dated 2006):

How the values were obtained:
Format in all cases: in vivo
[1] = test system: morningglory (Ipomoea hederacea); test: Test C preemergence
Summary of the method: (§1)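 Visual injury scores of 0–100, with 100 meaning complete control, were given relative to controls after 12–14 days in the greenhouse. Treatments used a surfactant-containing non-phytotoxic solvent formulation, sprayed on seeded pots preemergence or on 1–4-leaf plants of 2–18 cm postemergence.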

[2] = test system: bermudagrass (Cynodon dactylon); test: Test C preemergence
Summary of the method: as §1

Nightshade = test: Test C preemergence
[3] = test system: johnsongrass (Sorghum halepense); test: Test C preemergence
Summary of the method: as §1

corn (Zea mays) = test: Test C preemergence
Summary of the method: as §1

[4] = test system: yellow nutsedge (Cyperus esculentus); test: Test C preemergence
Summary of the method: as §1

[5] = test system: woolly cupgrass (Eriochloa villosa); test: Test C preemergence
Summary of the method: as §1

[6] = test system: velvetleaf (Abutilon theophrasti); test: Test C preemergence
Summary of the method: as §1

kochia (Kochia scoparia) = test: Test C preemergence
Summary of the method: as §1

Sunflower = test: Test C preemergence; settings: Rate 62 g/ha; scale 0 to 100, 0 no effect, 100 complete control
[7] = test system: Surinam grass (Brachiaria decumbens); test: Test C preemergence
Summary of the method: as §1

[8] = test system: lambsquarters (Chenopodium album); test: Test C preemergence
Summary of the method: as §1

[9] = test system: pigweed (Amaranthus retroflexus); test: Test C preemergence
Summary of the method: as §1

[10] = test system: crabgrass (Digitaria sanguinalis); test: Test C preemergence
Summary of the method: as §1

[11] = test system: goosegrass (Eleusine indica); test: Test C preemergence
Summary of the method: as §1

[12] = test system: cocklebur (Xanthium strumarium); test: Test C preemergence
Summary of the method: as §1

[13] = test system: common ragweed (Ambrosia elatior); test: Test C preemergence
Summary of the method: as §1

[14] = test system: giant foxtail (Setaria faberii); test: Test C preemergence
Summary of the method: as §1

soybean (Glycine max) = test: Test C preemergence
Summary of the method: as §1

[15] = test system: smallflower flatsedge (Cyperus difformis); test: Test C flooded paddy test; settings: for Flatsedge plant response rating: Flooded Paddy, scale 0 to 100, 0 no effect, 100 complete control; for Plant response rating, Flatsedge: flooded paddy test, scale 0 to 100 (0 no effect, 100 complete control)
Summary of the method: (§2)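 Flooded paddy, 2-leaf stage at treatment. Readout: visual % control vs untreated, 0–100, at 12–14 d in greenhouse.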

[16] = test system: barnyardgrass (Echinochloa crus-galli); test: Test C flooded paddy test; settings: for Barnyardgrass plant response rating: Flooded Paddy, scale 0 to 100, 0 no effect, 100 complete control; for Plant response rating, Barnyardgrass: flooded paddy test, scale 0 to 100 (0 no effect, 100 complete control)
Summary of the method: as §2

[17] = test system: duck salad (Heteranthera limosa); test: Test C flooded paddy test; settings: for Ducksalad plant response rating: Flooded Paddy, scale 0 to 100, 0 no effect, 100 complete control; for Plant response rating, Ducksalad: flooded paddy test, scale 0 to 100 (0 no effect, 100 complete control)
Summary of the method: as §2

[18] = Rate 62 g/ha, scale 0 to 100, 0 no effect, 100 complete control
[19] = preemergence, Rate 31 g/ha, scale 0 to 100
[20] = preemergence, Rate 250 g/ha, visual evaluation after 12 to 14 days
[21] = preemergence, Rate 125 g/ha, scale 0 to 100, 0 no effect, 100 complete control

CC(C)(C)c1ccn(C2SCN(c3cccc(OC(F)F)c3)C2=O)n1 (centres unmarked) [Compound 36]
Plant response rating, Morningglory [1, 18]: 0
Plant response rating, Morningglory [1, 19]: 0
Plant response rating (0 to 100), Morningglory [1, 20]: 50
Plant response rating, Morningglory [1, 21]: 0
Plant response rating, Bermudagrass [2, 18]: 100
Plant response rating, Bermudagrass [2, 19]: 100
Plant response rating (0 to 100 where 0 is no effect and 100 is complete control), Bermudagrass [2, 20]: 100
Plant response rating, Bermudagrass [2, 21]: 100
Plant response rating, Nightshade (Nightshade; Rate 31 g/ha, scale 0 to 100): 0
Plant response rating, Nightshade (Nightshade; [18]): 30
Plant response rating, Nightshade (Nightshade; Rate 125 g/ha, scale 0 to 100, 0 no effect, 100 complete control): 50
Plant response rating, Johnsongrass [3, 18]: 90
Plant response rating, Johnsongrass [3, 19]: 50
Plant response rating (0 to 100), Johnsongrass [3, 20]: 100
Plant response rating, Johnsongrass [3, 21]: 90
Plant response rating, Corn (corn (Zea mays); [18]): 20
Plant response rating, Corn (corn (Zea mays); [19]): 0
Plant response rating (0 to 100), Corn (corn (Zea mays); [20]): 80
Plant response rating, Corn (corn (Zea mays); [21]): 40
Plant response rating, Nutsedge [4, 18]: 0
Plant response rating, Nutsedge [4, 19]: 0
Plant response rating (0 to 100), Nutsedge [4, 20]: 30
Plant response rating, Nutsedge [4, 21]: 30
Plant response rating, Cupgrass, Woolly [5, 18]: 60
Plant response rating, Cupgrass, Woolly [5, 19]: 30
Plant response rating (0 to 100), Cupgrass, Woolly [5, 20]: 100
Plant response rating, Cupgrass, Woolly [5, 21]: 100
Plant response rating, Velvetleaf [6, 18]: 0
Plant response rating, Velvetleaf [6, 19]: 0
Plant response rating (0 to 100), Velvetleaf [6, 20]: 40
Plant response rating, Velvetleaf [6, 21]: 0
Plant response rating, Kochia (kochia (Kochia scoparia); [18]): 100
Plant response rating, Kochia (kochia (Kochia scoparia); [19]): 70
Plant response rating (0 to 100), Kochia (kochia (Kochia scoparia); [20]): 100
Plant response rating, Kochia (kochia (Kochia scoparia); [21]): 100
Plant response rating, Sunflower (Sunflower): 0
Plant response rating, Surinam grass [7, 18]: 70
Plant response rating, Surinam grass [7, 19]: 20
Plant response rating (0 to 100), Surinam grass [7, 20]: 100
Plant response rating, Surinam grass [7, 21]: 70
Plant response rating, Lambsquarters [8, 18]: 100
Plant response rating, Lambsquarters [8, 19]: 100
Plant response rating (0 to 100), Lambsquarters [8, 20]: 100
Plant response rating, Lambsquarters [8, 21]: 100
Plant response rating, Pigweed [9, 18]: 0
Plant response rating, Pigweed [9, 19]: 0
Plant response rating (0 to 100), Pigweed [9, 20]: 100
Plant response rating, Pigweed [9, 21]: 0
Plant response rating, Crabgrass [10, 18]: 100
Plant response rating, Crabgrass [10, 19]: 90
Plant response rating (0 to 100), Crabgrass [10, 20]: 100
Plant response rating, Crabgrass [10, 21]: 100
Plant response rating, Goosegrass [11, 18]: 100
Plant response rating, Goosegrass [11, 19]: 90
Plant response rating (0 to 100), Goosegrass [11, 20]: 100
Plant response rating, Goosegrass [11, 21]: 100
Plant response rating, Cocklebur [12, 18]: 30
Plant response rating, Cocklebur [12, 19]: 0
Plant response rating (0 to 100), Cocklebur [12, 20]: 30
Plant response rating, Ragweed, Common [13, 18]: 0
Plant response rating, Ragweed, Common [13, 19]: 0
Plant response rating (0 to 100), Ragweed, Common [13, 20]: 50
Plant response rating, Ragweed, Common [13, 21]: 30
Plant response rating, Foxtail, Giant [14, 18]: 0
Plant response rating, Foxtail, Giant [14, 19]: 90
Plant response rating (0 to 100), Foxtail, Giant [14, 20]: 100
Plant response rating, Foxtail, Giant [14, 21]: 100
Plant response rating, Soybean (soybean (Glycine max); [18]): 30
Plant response rating, Soybean (soybean (Glycine max); [19]): 30
Plant response rating (0 to 100), Soybean (soybean (Glycine max); [20]): 50
Plant response rating, Soybean (soybean (Glycine max); [21]): 50
Flatsedge plant response rating ([15]; Rate 250 g/ha): 100
Flatsedge plant response rating ([15]; Rate 500 g/ha): 100
Plant response rating, Flatsedge ([15]; Rate 62 g/ha): 100
Plant response rating, Flatsedge ([15]; Rate 125 g/ha): 100
Barnyardgrass plant response rating ([16]; Rate 250 g/ha): 100
Barnyardgrass plant response rating ([16]; Rate 500 g/ha): 100
Plant response rating, Barnyardgrass ([16]; Rate 62 g/ha): 100
Plant response rating, Barnyardgrass ([16]; Rate 125 g/ha): 100
Ducksalad plant response rating ([17]; Rate 250 g/ha): 100
Ducksalad plant response rating ([17]; Rate 500 g/ha): 100
Plant response rating, Ducksalad ([17]; Rate 62 g/ha): 80
Plant response rating, Ducksalad ([17]; Rate 125 g/ha): 90
